One test concerns H82 cells. In words: Restoration of cell survival by RIPK1 or caspase inhibition, H82. Type of test: cell-based. The following applies: H82 treated with PlaB plus inhibitor. On the procedure: (§1) FIG. 8A-8B: Spliceosome Perturbation induces RIPK1-dependent apoptosis. (FIG. 8A) H82 and H446 cells were treated with PlaB, PlaB+Z-vad, PlaB+R3i, and PlaB+Z-Vad+R3i. H82 and H446 cells were treated with PlaB, PlaB+Z-vad, and PlaB+Necl.
(§2) In addition, our CRISPR-Cas9 KO of RIPK1 also rescues SCLC cell lines from PlaB induced toxicity.

In test [1] the test system is H446 cells. Briefly: Restoration of cell survival by RIPK1 or caspase inhibition, H446. It is filed as cell-based, human. The settings on record: H446 treated with PlaB plus inhibitor. Here is the method:
as §1, §2

Another test concerns ZBP1 reconstituted MEF. In words: Rescue of PlaB-mediated cell death by RIPK3 inhibitor. It is filed as cell-based, mouse. The following applies: 2.5 nM PlaB, 18 hours, with RIPK3 inhibitor. Here is the method: FIG. 5A-5E: SF3B1 perturbation upregulates A-RNA and Z-nucleic acids in MEFs. (FIG. 5A) 5 nM of PlaB induces A-RNA and Z-Nucleic acids in ΔZBP1 MEF cells. (FIG. 5B) Quantification of A-RNA and Z-Nucleic acids. […] Plots of signal intensity are mean±SEM, two-tailed unpaired Student's t test *p<0.05, ***p<0.001, ****p<0.0001. 18 hours of PlaB treatment for IF, WB and rescue experiments. IF: 5 nM PlaB, WB and rescue experiments: 2.5 nM PlaB.
Since induction of Z-nAs can result in ZBP1-dependent necroptosis, we analyzed induction of necroptosis in necroptotic competent MEFs using spliceosome inhibition. […] We also determined that MEFs ΔZBP1, WT, and Flag-ZBP1 cells treated with PlaB began dying within 24hours after treatment. With MEF Flag-ZBP1 cells showing only 20% survival after 24 hours (FIG. 16).

The test system of test [2] is H446 cells. Briefly: Immunofluorescence of A-RNA (J2) and Z-NA (Z22), H446. It is filed as cell-based, human. The following applies: low dose. The text has this: FIG. 4A-4C: SF3B1 perturbation increases dsRNA and Z-nucleic acid levels in treated cells. […] (FIG. 4B) Quantification of A-RNA and Z-Nucleic acids. (FIG. 4C) Western blot showing induction of cleaved-PARP, pH2AX, and ZBP1, and the reduction of RIPK1 protein levels. Plots of signal intensity are mean±SEM, two-tailed unpaired Student's t test **p<0.01, ****p<0.0001.
Our observations led us to explore what caused the elevated IFN response. We used an immunofluorescence (IF) technique to determine if A-RNA was increased after PlaB treatment.

“Also recorded” adds a separate entry of the source. Residues, ends and D or L forms follow the SMILES beside them. *: point of attachment. Cbz = O=C(OCc1ccccc1)*; CH2F = FC*

In the case of `COC(=O)C[C@H](NC(=O)[C@H](C)NC(=O)[C@@H](NC(=O)OCc1ccccc1)C(C)C)C(=O)CF` [Z-Vad FMK] (Cbz-Val-Ala-Asp(OMe)-CH2F), the cell survival entry in the test on H82 cells and in the test with H446 cells [1] was “significantly restore cell survival” in each case.
For `CN1C(=O)C(Cc2c[nH]c3ccccc23)NC1=S` (stereo not shown) [Nec-I, necrostatin I], the cell survival entry in the test with H82 cells and in the test on H446 cells [1] was “significantly restore cell survival” each time.
In the case of `Cc1cc(-c2cnc(N)c3c(-c4ccc5scnc5c4)csc23)n(C)n1` [GSK-843], the “rescue of PlaB-mediated cell death (necroptosis)” value with ZBP1 reconstituted MEF is recorded as “completely rescued; also recorded: successfully rescue”.
Turning to `NS(=O)(=O)c1ccc(S(=O)(=O)Nc2cccc3c(Cl)c[nH]c23)cc1` [indisulam], in the test with H446 cells [2] (J2 antibody), the “accumulation of A-RNA” value is “induces accumulation”. In addition, the “accumulation of Z-Nucleic acids” value in the test on H446 cells [2] (Z22 antibody) is given as “induces accumulation”.
